Assays:
Format in all cases: cell-based
LNCaP cell line = experiment: Cell cycle and apoptosis of LNCaP cells (flow cytometry)
Experimental: calculating volume (V= 0.5 × L × W2). Finally, the mice were sacrificed and the tumors were harvested for hematoxylin and eosin (H&E) staining.
Luciferase Reporter Assays for PR, GR, and MR
PC3, HeLa, and HEK293T cells were cultured using 5% CSS RPMI-1640, 5% CSS RPMI-1640 and 10% FBS DMEM media in 96-well plates for 24 h, respectively. For PR induction, PC3 (1 × 10^4 cells/well) were transfected with 50 ng pcDNA3-PRB (#89130, Addgene), 24 ng pGL4.36[luc2P MMTV Hygro] (Promega) and 5 ng Renilla using HG-TransGeneTM transfection reagent (#TG-10012, Genomeditech) for 4 h. […] The luciferase activities were assessed using the Dual-Glo Luciferase system (#E1910, Promega). […]
Cell cycle were determined after 48 h incubation by Cell Cycle Staining Kit (#CCS012, MULTI SCIENCES) using […]
Cytomic FC 500MCL flow cytometer (Beckman Coulter, Inc). Cell apoptosis were determined after 24 h incubation by Annexin V-FITC/PI apoptosis kit (#AP101, MULTI SCIENCES) using BD FACS S ORP ARIA II flow cytometer (BD Biosciences).
Graphpad Prism (v.8.4) program was adopted for statistical analysis and data were presented as the mean ± standard error of mean (SEM). The value of p was determined on the basis of at least three independent assays using Student’s t-test, one-way ANOVA or two-way ANOVA analysis.

[1] = tested on: U2OS, MCF-7, HepG2, HL60, H1299, A549, SW480, U87, Hela cell lines; experiment: MTT cell viability assay, various human cancer cell lines; conditions: concentration as high as 50 μM; Enz except U2OS, M17-B15 except A549
Experimental: 3-(4,5-dimethythiazol-2-yl)-2,5-diphenyl-2-H-tetrazolium bromide (MTT) colorimetric assay was employed to investigate cell viability. Cells were seeded into 96-well plates with 2-5× 10^3 cells per well (5× 10^3 cells/well for LNCaP, 22RV1, NIH-3T3, GES-1, Chang, […]
NCI-H1299, U2OS, U87) for 1 day incubation at 37 °C. Then, the cells were treated with various concentrations of compounds (22.86 nM - 50 μM) and incubated for 72 h. Then, 10 μl MTT (5 mg/ml) was added into each well and incubated for 4 h. Afterwards, 100 μl of triplex 10% SDS-0.1% HCl-phosophate-buffered saline (PBS) solutions was added into each well and incubated for overnight. The absorbance at 570 nm was measured (Eon, Bioteck, Winooski, VT). […]

22RV1 = experiment: Clonogenic (colony forming) assay, 22RV1; conditions: 2 and 20 μM, 16-18 days
Experimental: 1.5× 10^3 cells/well of LNCaP or 22RV1 were seeded into a 6-well plate. After 1 day
incubation, the medium of each well was removed and washed thrice using PBS. […]

Structure (SMILES)	impact on cell cycle and apoptosis (LNCaP cell line)	cell viability inhibition of various human cancer cell lines [1]	colony formation of 22RV1 (22RV1)
CC(=O)Cc1nsc(NC(=O)c2cc(-c3cccc(C(F)(F)F)c3)oc2C)n1 [Compound M17-B15]	do not show an obvious impact	mild to moderate inhibitory effects	not
CNC(=O)c1ccc(N2C(=S)N(c3ccc(C#N)c(C(F)(F)F)c3)C(=O)C2(C)C)cc1F [Enz, enzalutamide, reference compound]	do not show an obvious impact	mild to moderate inhibitory effects	not
